The record followed here is ChEMBL document CHEMBL5244272 (Eur J Med Chem, 2021).

≈ marks a conversion by molar mass, not a printed value.

Experiment [1] deals with Plasmodium berghei. Kind of experiment: Antimalarial activity against Plasmodium berghei ANKA infected in po dosed mouse. It counts as functional. The settings on record: Plasmodium berghei, ANKA.
The test system of experiment [2] is Plasmodium berghei. The experiment in a line: Antimalarial activity against Plasmodium berghei ANKA infected in mouse at 30 mg/kg, po. It counts as functional.
Experiment [3] relates to Plasmodium falciparum. The experiment in a line: Antimalarial activity against Plasmodium falciparum W2. It counts as functional, organism-based.
Experiment [4] concerns Plasmodium falciparum. Kind of experiment: Antimalarial activity against Plasmodium falciparum K1. It counts as functional, organism-based.
Experiment [5] deals with Plasmodium falciparum. The experiment in a line: Antimalarial activity against Plasmodium falciparum NF54. It counts as functional, organism-based.
For experiment [6], the system named is Plasmodium falciparum. The experiment in a line: Antimalarial activity against late stage Plasmodium falciparum gametocytes. It counts as functional, organism-based.
The subject of experiment [7] is Plasmodium falciparum. The experiment in a line: Potency index, ratio of artemisinin IC50 to test compound IC50 for Plasmodium falciparum HB3. It counts as functional.
Experiment [8] concerns Plasmodium falciparum. The experiment in a line: Potency index, ratio of artemisinin IC50 to test compound IC50 for Plasmodium falciparum K1. It counts as functional.
Experiment [9] deals with Cytomegalovirus. Kind of experiment: Antiviral activity against HCMV. The settings on record: Human betaherpesvirus 5. It counts as functional, organism-based.
Experiment [10] deals with Plasmodium falciparum. The experiment in a line: Antimalarial activity against Plasmodium falciparum 3D7. It counts as functional, organism-based.
Experiment [11] deals with Plasmodium berghei. Kind of experiment: Antimalarial activity against Plasmodium berghei infected in mouse assessed reduction in parasitemia measured after 4 days. It counts as functional. Set-up: scale not given: the % may be the effect or the level left. The settings on record: time 4 day.
Experiment [12] has as its system Plasmodium berghei. Kind of experiment: Antimalarial activity against Plasmodium berghei infected in mouse assessed increase in survival time. It counts as functional.
Experiment [13] deals with ADR5000 cell line. Kind of experiment: Cytotoxicity against human CEM/ADR5000 cells. It counts as functional, cell-based.
For experiment [14], the system named is CCRF-CEM. The experiment in a line: Cytotoxicity against human CCRF-CEM cells. It counts as functional, cell-based.
Experiment [15] relates to Plasmodium berghei. Kind of experiment: Antimalarial activity against Plasmodium berghei infected in mouse assessed as increase in survival at 100 mg/kg, po. It counts as functional.
The test system of experiment [16] is Plasmodium falciparum. Kind of experiment: Antimalarial activity against Plasmodium falciparum D6. It counts as functional, organism-based.
Experiment [17] has as its system Plasmodium falciparum. The experiment in a line: Antimalarial activity against ART-resistant Plasmodium falciparum NF54 harboring […] mutant. It counts as functional, organism-based.
In experiment [18] the test system is Plasmodium falciparum. Kind of experiment: Antimalarial activity against Plasmodium falciparum SGE2. It counts as functional, organism-based.
Experiment [19] concerns Plasmodium falciparum. The experiment in a line: Antimalarial activity against ART-resistant Plasmodium falciparum Dd2 harboring R539T mutant. It counts as functional, organism-based.
Experiment [20] deals with Plasmodium falciparum. Kind of experiment: Antimalarial activity against Plasmodium falciparum IV-V gametocytes. It counts as functional, organism-based.
Experiment [21] relates to Plasmodium falciparum. The experiment in a line: Antimalarial activity against Plasmodium falciparum IPC5202. It counts as functional, organism-based.
In experiment [22] the test system is Plasmodium falciparum. Kind of experiment: Antimalarial activity against ART-sensitive Plasmodium falciparum W2. It counts as functional, organism-based.
The subject of experiment [23] is Plasmodium falciparum. The experiment in a line: Antimalarial activity against Plasmodium falciparum Dd2. It counts as functional, organism-based.
For experiment [24], the system named is Plasmodium falciparum. The experiment in a line: Antimalarial activity against ART-sensitive Plasmodium falciparum NF54. It counts as functional, organism-based.
The subject of experiment [25] is Plasmodium falciparum. Kind of experiment: Antimalarial activity against Plasmodium falciparum HB3. It counts as functional, organism-based.
The subject of experiment [26] is Plasmodium falciparum. Kind of experiment: Antimalarial activity against Plasmodium falciparum IPC4912. It counts as functional, organism-based.
The subject of experiment [27] is Plasmodium berghei. Kind of experiment: Antimalarial activity against Plasmodium berghei infected in mouse. It counts as functional. The settings on record: Plasmodium berghei.
Experiment [28] relates to Plasmodium berghei. The experiment in a line: Antimalarial activity against Plasmodium berghei infected in mouse at less than 10 mg/kg, po. It counts as functional.
Experiment [29] concerns Plasmodium chabaudi. Kind of experiment: Antimalarial activity against Plasmodium chabaudi infected in mouse. It counts as functional.
Experiment [30] concerns Plasmodium falciparum. The experiment in a line: Antimalarial activity against Plasmodium falciparum. It counts as functional, organism-based.
Experiment [31] has as its system Plasmodium falciparum. Kind of experiment: Potency index, ratio of artesunate IC50 to test compound IC50 for chloroquine resistant Plasmodium falciparum. It counts as functional.
Experiment [32] relates to Plasmodium berghei. Kind of experiment: Potency index, ratio of artesunic acid ED50 to test compound ED50 for Plasmodium berghei. It counts as functional.
For experiment [33], the system named is Plasmodium berghei. Kind of experiment: Antimalarial activity against Plasmodium berghei K173 infected in mouse. It counts as functional. The settings on record: Plasmodium berghei, K173.
The mark [34] stands for this setting: read-out: ED50 (the source's name).

In [1], `O=C(CC1CCC2(CC1)OOC1(OO2)C2CC3CC(C2)CC1C3)N1CCOCC1` (stereo not drawn) registered an ED90 of 3.88 mg/kg. This compound also had an Activity in experiment [2] of 100%.
The term IC50 denotes the concentration that inhibits the measured activity by half. With `C[C@@H]1CC[C@H]2[C@@H](C)C(=O)N(S(=O)(=O)c3cccs3)[C@@H]3O[C@]4(C)CC[C@@H]1[C@@]23OO4`, the IC50 in [3] amounted to 4.26 nM; in experiment [4], 6.27 nM; in experiment [5] it was 5.68 nM; in [6] it was 8.6 nM.
Regarding `COP(=O)(OCC[C@H]1O[C@@H]2O[C@]3(C)CC[C@H]4[C@H](C)CC[C@@H]([C@H]1C)[C@@]24OO3)OCC[C@H]1O[C@@H]2O[C@]3(C)CC[C@H]4[C@H](C)CC[C@@H]([C@H]1C)[C@@]24OO3`, the “Ratio IC50” value in experiment [7] and in experiment [8] was above 50 in each case.
Turning to `C[C@H]1[C@H](OC(=O)CCC(=O)OCCOC(=O)CC(=O)OCCOC(=O)CCC(=O)O[C@@H]2O[C@@H]3O[C@]4(C)CC[C@H]5[C@H](C)CC[C@@H]([C@H]2C)[C@@]35OO4)O[C@@H]2O[C@]3(C)CC[C@H]4[C@H](C)CC[C@@H]1[C@@]24OO3`, the EC50 in experiment [9] amounted to 0.57 nM; in [10] (read-out: EC50), 1.4 nM.
`Oc1ccc(C2CCC3(CC2)OOC2(OO3)C3CC4CC(C3)CC2C4)cc1CN1CCCC1` (stereo not drawn) gave an Activity in experiment [11] above 99.7%. Moreover, the IC50 in experiment [4] and in [5] was 4.8 nM each time. For the same compound, the Time in [12] worked out at 25 days.
Regarding `C[C@H]1[C@H](OC(=O)CCC(=O)Nc2ccc3ncnc(Cc4ccc(Cl)c(Cl)c4)c3c2)O[C@@H]2O[C@]3(C)CC[C@H]4[C@H](C)CC[C@@H]1[C@@]24OO3`, the values for the EC50 in experiment [13], in experiment [10] (read-out: EC50) and in experiment [14] were 500 nM, 1.4 nM and 2800 nM, respectively.
Turning to `C[C@H]1[C@@H](OCC(CO[C@H]2O[C@@H]3O[C@]4(C)CC[C@H]5[C@H](C)CC[C@@H]([C@H]2C)[C@@]35OO4)=NO)O[C@@H]2O[C@]3(C)CC[C@H]4[C@H](C)CC[C@@H]1[C@@]24OO3`, the IC50 was 9.9 nM in [3] and 13.8 nM in experiment [16]. The Activity in [15] was found to be 100%.
One may read the ED50 as the midpoint of the dose-response relation. Consider `C[C@H]1[C@@H](O)O[C@@H]2O[C@@]3(C)CC[C@H]4[C@H](C)CC[C@@H]1[C@@]24OO3` [ARTENIMOL], for which the IC50 in [17] was determined as 1.1 nM; in experiment [18], 9 nM; in [19], 1.4 nM; in experiment [20], 440 nM; in experiment [21] it was 6.2 nM; in experiment [22], 1 nM. Further, the IC50 came to 4.2 nM in [23]; 1.5 nM in [24]; 4.7 nM in experiment [10]; 5 nM in experiment [25]; 3.7 nM in experiment [26]. It took a dose of 1.15 mg/kg to reach the 50% effect level in [27] (ED50).
Consider `C[C@@H]1CC[C@H]2C(CN3CCN(CCO)CC3)=C(C(F)(F)F)O[C@@H]3O[C@]4(C)CC[C@@H]1[C@]32OO4`, for which the Activity in [28] was determined as 100%.
With `C[C@H]1[C@@H](OCC(CO[C@H]2O[C@@H]3O[C@]4(C)CC[C@H]5[C@H](C)CC[C@@H]([C@H]2C)[C@@]35OO4)=NOC(=O)CCC(=O)O)O[C@@H]2O[C@]3(C)CC[C@H]4[C@H](C)CC[C@@H]1[C@@]24OO3`, in [15], the Activity is 100%.
Turning to `CCCCNC(=O)CCC(C)[C@H]1CCC2C3C(C[C@H](OC(C)=O)[C@@]21C)[C@@]1(C)CCC2(C[C@H]1C[C@H]3OC(C)=O)OOCOO2` (stereo partly drawn), in experiment [20], the IC50 is 1160 nM.
`C[C@H]1[C@@H](CCc2ccc(C(=O)O)cc2)O[C@@H]2O[C@]3(C)CC[C@H]4[C@H](C)CC[C@@H]1[C@@]24OO3` had an Activity in [29] of 98.7%. The EC50 in [4] (setting [34]) amounted to 0.6 ng/mL (≈ 1.44 nM); in [10] (setting [34]), 1.1 ng/mL.
In turn, `C[C@H]1[C@H](CCCO)O[C@@H]2O[C@]3(C)CC[C@H]4[C@H](C)CC[C@@H]1[C@@]24OO3` yielded an IC50 in [30] of 0.23 ng/mL (≈ 0.705 nM). Also, the “Ratio IC50” value in experiment [31] is listed as 5.
For `CC(O[C@H]1O[C@@H]2O[C@@]3(C)CC[C@H]4[C@H](C)CC[C@@H]([C@H]1C)[C@@]24OO3)c1ccc(CN2CCOCC2)c(O)c1` (stereo partly drawn), the “Ratio ED50” value in experiment [32] was found to be 10. Besides, the ED50 in experiment [33] and in [27] was 0.64 mg/kg/day in each case.
